Data from patent publication US20190151418A1, “COMBINATION OF CALCIUM-PHOSPHATE-CONTAINING POROUS COMPOSITE AND PTH” (TOYOBO CO., LTD., priority 2016, published 2019).

System: standardized full-thickness bone defect (diameter: about 9 mm) in the calvarium
Experiment: Test Example 1: rat calvarium bone defect, OCP/Col or β-TCP/Col implant + teriparatide subcutaneous injection
Format: in vivo, Male Wistar rats
Text: Male Wistar rats (12 weeks old) were each intraperitoneally anesthetized, and a skin incision and a periosteal incision were made in the calvarium part to expose the calvarium. A standardized full-thickness bone defect (diameter: about 9 mm), for which spontaneous recovery could not be expected, was created. Then, one disc-shaped OCP/Col produced in Production Example 2 or one disc-shaped β-TCP/Col produced in Production Example 3 was implanted therein. As the control, rats in which only a bone defect was created, and no sample was implanted (untreated group) were prepared. After the sample was implanted, the periosteum and skin were sutured, and the surgery was completed. […] In the rats of the teriparatide subcutaneous injection group, 10 μg/kg of the teriparatide prepared in Production Example 5 was subcutaneously injected immediately after surgery and every day thereafter. Subcutaneous injection was performed in such a manner that the thawed teriparatide solution was sucked by a 1-mL syringe (27G injection needle), the back skin was sterilized with a dilute Hibitane solution, and then a considerable amount of teriparatide solution was injected subcutaneously in the back. The observation period after surgery was 8 weeks for each group, and 5 rats were used in each period.
Four weeks and eight weeks after surgery, tomography was carried out on the rats in the living state using an X-ray CT scanner for experimental animals (Latheta LCT-200, produced by Hitachi Aloka Medical, Ltd.) at a low X-ray tube voltage, and the state of new bone formation in the bone defect site was carefully examined. Similarly, after CT photography 8 weeks after surgery, the rats were euthanized under anesthesia with an excess amount of pentobarbital. The calvarium and surrounding tissue were taken, and immersed and fixed in 0.1 M phosphate-buffered 4% paraformaldehyde (pH 7.4). The extracted samples were photographed (20 kV, 5 mA) with a soft X-ray camera (CMBW-2, produced by Softex Co., Ltd.), and then decalcified with 10% EDTA to prepare paraffin samples. Then, tissue sections (thickness: 6 μm) cut in the frontal plane were prepared, and a histological search was performed by hematoxylin-eosin staining. Further, using the multiple tissue sections corresponding to the center of the defect of each sample, the ratio of new bone (n-Bone %) in the created defect was examined by histological quantification. Variance analysis, etc., were conducted using the average value and standard deviation of n-Bone % in each group, and a significance test was conducted. The significance level was set at 5%.

[1] = 8 weeks after surgery, hematoxylin-eosin, PTH(+) = teriparatide 10 μg/kg s.c. every day, PTH(−) = none

Structure (SMILES): CC[C@H](C)[C@H](NC(=O)[C@H](CCC(=O)O)NC(=O)[C@H](CO)NC(=O)[C@@H](NC(=O)[C@@H](N)CO)C(C)C)C(=O)N[C@@H](CCC(N)=O)C(=O)N[C@@H](CC(C)C)C(=O)N[C@@H](CCSC)C(=O)N[C@@H](Cc1cnc[nH]1)C(=O)N[C@@H](CC(N)=O)C(=O)N[C@@H](CC(C)C)C(=O)NCC(=O)N[C@@H](CCCCN)C(=O)N[C@@H](Cc1cnc[nH]1)C(=O)N[C@@H](CC(C)C)C(=O)N[C@@H](CC(N)=O)C(=O)N[C@@H](CO)C(=O)N[C@@H](CCSC)C(=O)N[C@@H](CCC(=O)O)C(=O)N[C@@H](CCCN=C(N)N)C(=O)N[C@H](C(=O)N[C@@H](CCC(=O)O)C(=O)N[C@@H](Cc1c[nH]c2ccccc12)C(=O)N[C@@H](CC(C)C)C(=O)N[C@@H](CCCN=C(N)N)C(=O)N[C@@H](CCCCN)C(=O)N[C@@H](CCCCN)C(=O)N[C@@H](CC(C)C)C(=O)N[C@@H](CCC(N)=O)C(=O)N[C@@H](CC(=O)O)C(=O)N[C@H](C(=O)N[C@@H](Cc1cnc[nH]1)C(=O)N[C@@H](CC(N)=O)C(=O)N[C@@H](Cc1ccccc1)C(=O)O)C(C)C)C(C)C [teriparatide]
- X-ray photographs of isolated bone defect sites (FIG. 1) (8 weeks after surgery, PTH(+) = teriparatide 10 μg/kg s.c. every day): radiopaque images in the defects were equally scarce
- stained pathological specimens, high-magnification images (FIG. 4) [1]: thin new bone extended from the defect margins
- stained pathological specimens, low-magnification (×1.25) images (FIG. 3) [1]: thin bone tissue extending from the defect margins (▾) and connective tissue surrounding the bone tissue
- ratio of new bone (n-Bone %) in the defect (8 weeks after surgery, histological quantification (FIG. 5), PTH(+) = teriparatide 10 μg/kg subcutaneously every day, PTH(−) = no injection, average ± standard deviation): 31.1±10.2%
- X-ray photographs (cross sections) of calvarium shot with the rats alive (FIG. 2) (PTH(+) = teriparatide 10 μg/kg s.c. every day): radiopaque images extending from the defect margins (∇) were observed; however, their thickness was less than that of the existing bone
- new bone formation (conclusion from FIGS. 1 to 5) (teriparatide 10 μg/kg s.c. every day, 8 weeks): new bone formation was not observed
